Source: patent publication US4068003A, “Method of medical treatment of myasthenia” (priority 1976, dated 1978)

Tests used:
[1] = Clinical test in myasthenia gravis, case [I] (person); format: in vivo, human
Method: (§1) The effects of the present invention for the treatment of myasthenia gravis will be shown with reference to the results of clinical tests.
They were attacked with myasthenia. […] Ambenonium is a cholinesterase inhibitor and available, for example, under the trademark Myterase. One year before the first medical examination in this hospital, they took 20 mg/day of Ambenonium.
At the first medical examination, drooping of the left eyelid, disorder in the movement of the left eyeball and fatiguing of the limbs were observed. […] The administration according to the recipe was continued for 30 days and, thereafter, dosage of Ambenonium was reduced to 10 mg/day (morning and evening: 5 mg each). This treatment was continued for a further period of 30 days.

[2] = Clinical test in myasthenia gravis, case [II] (person); format: in vivo, human
Method: as §1
Thereafter, they took 20-25 mg/day of Ambenonium perorally intermittently.
At the first medical examination, eye symptoms such as eyelid drooping and double vision and evervation in limbs were remarkable. As for the walking ability, they barely walked 100 m even when the effect of Ambenonium was exerted.
By peroral administration of 25 mg/day of Ambenonium and 30 mg/day of Coenzyme Q10, muscular contraction was caused 2-3 days after the start of the treatment. Dosage of Ambenonium was reduced to 20 mg/day. After the treatment was continued according to this recipe for one week, the heavy feeling of the body, double vision and the eye symptoms were relieved. Continuous 400 m walking was made possible.

[3] = Acute toxicity test, single high dose, rats; format: in vivo, rats of Wistar strain; conditions: for Maximum dose (no case of deaths): single dose, 7 days observation
Text: (§2) In order to evaluate the acute toxicity of a single high dose administration of Coenzyme Q10, male and female rats of Wistar strain and male and female mice of ICR-JCL strain were used, and oral, intramuscular, subcutaneous, and intravenous administrations were studied. For the oral administration of Coenzyme Q10, gum Arabic suspension was used. For the intramuscular, subcutaneous and intravenous administrations, Coenzyme Q10 was used as a solution containing a nonionic surfactant, Nikkol HCO-60. Nikkol HCO-60 is a trade mark of a non-ionic surfactant comprised of hydrogenated castor oil/polyoxyethylene-60 mole ether available from Nikko Chemicals, Co. Ltd., Japan.
(§3) Observation was carried out for 7 days by using six males and six females for each dose group.

[4] = Acute toxicity test, single high dose, mice; format: in vivo, mice of ICR-JCL strain; conditions: for Maximum dose (no case of deaths): single dose, 7 days observation
Text: as §2, §3

[5] = Subacute oral toxicity test in rats (5 weeks); format: in vivo, rats of Wistar strain
Method: (§4) Coenzyme Q10 was compulsorily and orally administered every day for 5 weeks to each group consisting of 10 male rats and 10 female rats of Wistar strain. The dose was 40, 200, and 1000 mg/Kg/day, respectively. Coenzyme Q10 was used in the form of gum Arabic suspension, while the solution containing gum Arabic alone was used as the control group. Collection of blood and urine samples and autopsies were carried out 5 weeks after the initiation of administration.

[6] = Subacute oral toxicity test in rabbits (23 days); format: in vivo
Method: Coenzyme Q10 was compulsorily and orally administered every day for 23 days to each group consisting of 6 male rabbits and 5 female rabbits. The dose was 6, 60 and 600 mg/Kg/day, respectively. Coenzyme Q10 was used in the form of gum Arabic suspension, whereas the solution containing gum Arabic alone was used as the control group. On the 24th day, blood samples were collected from all the animals, and 3 males and 2 females from each group were then selectively autopsied.

[7] = Chronic oral toxicity test (26 weeks); format: in vivo, rats of Wistar strain
Method: Coenzyme Q10 was compulsorily and orally administered to each group consisting of 10 male rats and 10 female rats of Wistar strain for consecutive 26 weeks in a ratio of 6 days a week. The dose was 6, 60 and 600 mg/Kg/day, respectively. Coenzyme Q10 was used in the form of gum Arabic suspension, whereas the solution containing gum Arabic alone is used as the control group. Collection of blood and urine samples and autopsies were carried out 26 weeks after the administration.

Teratogenesis test, rats = format: in vivo; conditions: rats, 6, 60, 600 mg/Kg/day
Teratogenesis test, mice = format: in vivo; conditions: mice, 6, 60, 600 mg/Kg/day
[8] = Clinical test in myasthenia gravis, case [III] (person); format: in vivo, human
Text: as §1
The patient was attacked by myasthenia. At the first medical examination, only eyelid drooping (eye fissure: left 5 mm, right 2 mm) was observed.

[9] = Overall result of acute, subacute, chronic toxicity and teratogenesis tests; format: in vivo
Text: as §2, §4
Coenzyme Q10 was compulsorily and orally administered every day for 23 days to each group consisting of 6 male rabbits and 5 female rabbits. The dose was 6, 60 and 600 mg/Kg/day, respectively. […]

[10] = all routes, maximum doses of Table 1
[11] = any administration group, 7 days
[12] = at the maximum dose in each administration route
[13] = intramuscular, Nikkol HCO-60 solution
[14] = intravenous, Nikkol HCO-60 solution
[15] = subcutaneous, Nikkol HCO-60 solution
[16] = rats, 40, 200, 1000 mg/Kg/day oral, 5 weeks
[17] = rabbits, 6, 60, 600 mg/Kg/day oral, 23 days
[18] = group not stated, spontaneous pneumonia and aspiration pneumonia due to erroneous administration
[19] = rats, 6, 60, 600 mg/Kg/day oral, 26 weeks, vs control group
[20] = Coenzyme Q10 30 mg/day, Ambenonium reduced to 20 mg/day, one week
[21] = Coenzyme Q10 30 mg/day peroral in combination with Distigmine Bromide

CC[N+](CC)(CCNC(=O)C(=O)NCC[N+](CC)(CC)Cc1ccccc1Cl)Cc1ccccc1Cl [Ambenonium]
improvement in the symptoms ([1]; Ambenonium alone, 20 mg/day peroral, 4 months): no significant improvement in the symptoms
walking ability ([2]; at first medical examination, under effect of Ambenonium, before Coenzyme Q10, barely walked): ~100 m

COC1=C(OC)C(=O)C(C/C=C(\C)CC/C=C(\C)CC/C=C(\C)CC/C=C(\C)CC/C=C(\C)CC/C=C(\C)CC/C=C(\C)CC/C=C(\C)CC/C=C(\C)CCC=C(C)C)=C(C)C1=O [Coenzyme Q10]
toxicity (acute) [3]: extremely low
LD50 [3, 10]: far higher than the maximum dose mentioned above
general condition, body weight, food intake and autopsy findings [3, 11]: no change
deaths [3, 12]: no case of deaths
Maximum dose (no case of deaths) [3, 13]: 500 mg/kg
Maximum dose (no case of deaths) [3, 14]: 250 mg/kg
Maximum dose (no case of deaths) ([3]; oral, gum Arabic suspension): 4000 mg/kg
Maximum dose (no case of deaths) [3, 15]: 500 mg/kg
toxicity (acute) [4]: extremely low
LD50 [4, 10]: far higher than the maximum dose mentioned above
general condition, body weight, food intake and autopsy findings [4, 11]: no change
deaths [4, 12]: no case of deaths
Maximum dose (no case of deaths) [4, 13]: 500 mg/kg
Maximum dose (no case of deaths) [4, 14]: 250 mg/kg
Maximum dose (no case of deaths) ([4]; oral, gum Arabic suspension): 4000 mg/kg
Maximum dose (no case of deaths) [4, 15]: 500 mg/kg
dead animals during the experiment ([5]; group not stated, spontaneous pneumonia and aspiration pneumonia due to error of administration): 4 animals
toxicity (subacute oral) ([5]; rats, 5 weeks): not recognized
hematological test and biochemical test of blood and urine [5, 16]: No significant change
weight of each organ [5, 16]: no significant change
general condition and body weight ([5]; rats, 40, 200, 1000 mg/Kg/day oral, 5 weeks, vs control group): no difference
electron-microscopic observation of liver (minute structure) ([6]; 7th, 14th and 24th days): not recognized abnormal findings
macroscopical and histological observation ([6]; hematoxylin.Eosine staining and liver fat staining, 23 days): abnormalities were not recognized
hematological test and biochemical test of blood [6, 17]: Abnormal findings were not obtained
weight of each organ [6, 17]: no effect
general condition and increase of body weight ([6]; rabbits, 6, 60, 600 mg/Kg/day oral, 23 days, vs control group): no difference
toxicity (subacute oral) ([6]; rabbits, 23 days): not recognized
deaths, females [7, 18]: 3 females
deaths, males [7, 18]: 11 males
macroscopical and histological observation ([7]; hemoxylin.Eosine staining and liver fat staining, 26 weeks, vs control group): abnormalities were not recognized
body weight [7, 19]: increased the same as that of the control group
general condition [7, 19]: no difference
toxicity (chronic oral) ([7]; rats, 26 weeks): no toxicity was observed
weights of organs ([7]; rats, 26 weeks): no significant increase and decrease
biochemical tests of blood and urine ([7]; rats, 26 weeks, vs control group): No significant changes
leukocytal percentages (hematological findings) ([7]; rats, 26 weeks, some increase and decrease, not dose-related): within the range of physiological fluctuations
adverse effects in mothers, fetuses, and newborns (Teratogenesis test, rats): no adverse effects
adverse effects in mothers, fetuses, and newborns (Teratogenesis test, mice): no adverse effects
walking and work ability ([1]; 30 days combination, then Ambenonium reduced to 10 mg/day for further 30 days): long distance walking and light work became possible
symptoms after further reduction of Ambenonium ([1]; Ambenonium reduced to 5 mg/day): no worsening of the symptoms was caused and the patient is now getting better
improvement in symptoms (walking, breathing) ([1]; Coenzyme Q10 30 mg/day peroral in combination with Ambenonium, at the start): an improvement in walking and relief in a feeling of difficulty in breathing
time to muscular contraction after start of treatment ([2]; Coenzyme Q10 30 mg/day with Ambenonium 25 mg/day, peroral): 2 to 3 days
continuous walking made possible [2, 20]: 400 m
heavy feeling of the body, double vision and eye symptoms [2, 20]: relieved
ascending and descending stairs [8, 21]: could ascend and descend stairs easily
need for the dropping lotion [8, 21]: became unnecessary
opening of the eyelids [8, 21]: improve and to stabilize the opening of the eyelids
walking straight looking ahead ([8]; Coenzyme Q10 30 mg/day peroral in combination with Distigmine Bromide, difficult before): could walk easily
overall safety [9]: very safe drug, without side-effects

CN(CCCCCCN(C)C(=O)Oc1ccc[n+](C)c1)C(=O)Oc1ccc[n+](C)c1 [Distigmine Bromide]
eye fissure, left ([8]; Distigmine Bromide 10 mg/day peroral plus 0.5 % eye drops, 6 months, before: left 5 mm): 6 mm
eye fissure, right ([8]; Distigmine Bromide 10 mg/day peroral plus 0.5 % eye drops, 6 months, before: right 2 mm): 4 mm
symptoms (eyelid drooping) ([8]; Distigmine Bromide peroral plus eye drops, 6 months): improved a little
